1 compound from patent publication US9579325B2, “Modulators of TNF-α signaling” (Genzyme Corporation, priority 2000, dated 2017) can be followed below.

Experiment [1] concerns Normal human dermal fibroblasts. Briefly: TNF-α induced apoptosis in primary human fibroblasts. The class given is cell-based. To be noted: for OD 595 nm: 2 ng/ml TNF-α 24 hours, crystal violet. The text has this:
(§1) Description of Table V: The results shown in Table V were obtained using the TNF-α assays performed as described in the protocols entitled “Method for TNF High Throughput Screen” and “Method for VCAM High Throughput Screen”, which are detailed below. These assays measure a cellular response to TNF-α stimulation, and the data published in the table are expressed as percentage inhibitions. Percentage inhibition is computed on a scale of 0 to 100% where 0 percent inhibition means the compound has no effect in the assay (the response is indistinguishable from TNF-α treatment alone), and 100% inhibition means that when the compound is present at the stated concentration, the response in the assay is the same as if TNF-α were not added. These two assays measure two different outcomes of TNF-α treatment, cell death and Vascular Cell Adhesion Molecule (VCAM) expression, and capture two of TNF-α's many biological effects. TNF-α induced apoptosis is a mechanism by which TNF-α production during immune/inflammatory responses can lead to direct cellular and tissue damage. TNF-α VCAM expression in endothelial cells is a response that allows leukocytes to leave the blood and enter a site of immune/inflammatory response. Both of these activities could lead to pathology in immune/inflammatory diseases. In the first column of the table, the percentage inhibition of the TNF-α driven apoptosis assay when the compounds are tested at 1 μM concentration is presented. The second column in the table lists the IC50 for the compound, a standard measure using a dilution series in the assay, and fitting a sigmoidal curve to the resulting dose-response curve. The IC50 is the concentration (derived analytically from the sigmoidal function) at which the compound would inhibit 50% of the response in the assay. The third and fourth column list the corresponding analysis for the TNF-α driven VCAM assay. In Table VI, data corresponding to the data in column 1 of Table V is shown, with human cells replacing the mouse cells used in the high throughput screen. […] As a consequence, the compounds will have use in treating more than one TNF-α mediated condition, and may be selected according to the manner in which the condition manifests. This corresponds to the use of these compounds in the treatment of human disease.
Normal human dermal fibroblasts were seeded into 96-well plates at 3×10^4 cells/well. Cells were pretreated for 2 hours with […] Actinomycin D and either Compound 44 or DMSO as a vehicle control. Cells were then exposed to 2 ng/ml TNF-α for 24 hours and stained with crystal violet/ethanol. Crystal violet was solubilized with methanol and absorbance at 595 nm was read on a microtiter plate reader.

The subject of experiment [2] is SJL mouse strain. In words: Experimental Allergic Encephalitis (murine model of multiple sclerosis). The class given is in vivo. How it is done: SJL mouse strain were immunized subcutaneously with proteolipid peptide amino acid residues 139-151 in Complete Freund's Adjuvant. Pertussis toxin was injected intravenously on day 1 and 3 post-induction. Weight loss occurred at day 7 post-immunization with paralysis ensuing between days 9 and 14 post-immunization.

Experiment [3] deals with Vascular Cell Adhesion Molecule (VCAM) expression in primary human umbilical vein endothelial cells. In words: VCAM High Throughput Screen (TNF-α driven VCAM expression). The class given is cell-based. To be noted: HUVEC, TNF 1.0 ng/ml.
Excerpt: as §1
• 1. Plate 4×10^4 L929 cells in 100 μl of complete EMEM in Costar 96 well plates in PM. • 2. The next day, pretreat with compound, inhibitor and control vehicle for 2 hours. • 3. After 2 hours pretreatment, add 10 μl 5 ng/ml human TNF-α and actinomycin D (40 μg/ml final concentration). • 4. Incubate overnight. • 5. In AM, remove supernatant. • 6. Wash on a plate washer (0.9% NaCl). • 7. […] Shake plates on orbital shaker and read at 595 nm on plate reader. […]

With `N#Cc1cccc(C(C(=O)NCC(c2ccccc2)c2ccccc2)N(CCc2c[nH]cn2)C(=O)c2ccccc2C(=O)c2ccccc2)c1` (stereo not shown) [Compound 44], the “% Rescue” value was found to be 18.4% in experiment [1] (2 μM compound), 57.1% in experiment [1] (4 μM compound) and 109.2% in experiment [1] (8 μM compound). The figures for the “OD 595 nm” value in experiment [1] (2 μM compound), in experiment [1] (4 μM compound) and in experiment [1] (8 μM compound) were 0.109, 0.147 and 0.198, respectively. Also, the “% inhibition of disease” value is recorded as 44.0% in experiment [2] (Induction regimen, 15 mgs/kg/day/i.p. from day 1-21, P = 0.06); 75.7% in experiment [2] (Induction regimen, 75 mgs/kg/day/i.p. from day 1-21, p = 0.001); 50% in experiment [2] (Oral therapeutic regimen, 75 mgs/kg/day/i.p. from day 7-28, p = 0.002); 43.5% in experiment [2] (Therapeutic regimen, 15 mgs/kg/day/i.p. from day 7-21, p = 0.08); 76.1% in experiment [2] (Therapeutic regimen, 75 mgs/kg/day/i.p. from day 7-21, p = 0.001). In addition, the “activity disease severity score (ADSS) at last day of dosing, treated (vs. control)” value is 1.9/3.35 in experiment [2] (Induction regimen, 15 mgs/kg/day/i.p. from day 1-21, control 3.35); 0.8/3.35 in experiment [2] (Induction regimen, 75 mgs/kg/day/i.p. from day 1-21, control 3.35); 2.2/4.4 in experiment [2] (Oral therapeutic regimen, 75 mgs/kg/day/i.p. from day 7-28, control 4.4); 2.6/4.6 in experiment [2] (Therapeutic regimen, 15 mgs/kg/day/i.p. from day 7-21, control 4.6); 1.1/4.6 in experiment [2] (Therapeutic regimen, 75 mgs/kg/day/i.p. from day 7-21, control 4.6). Besides, the “% Survival of treated (vs. % survival of controls)” value in experiment [2] (Induction regimen, 15 mgs/kg/day/i.p. from day 1-21, controls 50) is recorded as 75 vs. 50%; in experiment [2] (Induction regimen, 75 mgs/kg/day/i.p. from day 1-21, controls 50), 100 vs. 50%; in experiment [2] (Oral therapeutic regimen, 75 mgs/kg/day/i.p. from day 7-28, controls 20), 89 vs. 20%; in experiment [2] (Therapeutic regimen, 15 mgs/kg/day/i.p. from day 7-21, controls 11), 70 vs. 11%; in experiment [2] (Therapeutic regimen, 75 mgs/kg/day/i.p. from day 7-21, controls 11), 100 vs. 11%. Moreover, the IC50 in experiment [3] is 24.4 µM.

One may read the IC50 as the midpoint of a concentration-inhibition curve.
